Laboratory results from the NIST ThermoML archive (doi:10.1016/j.fluid.2005.06.010).

Test: xn = mol fraction of the nth substance listed
Conditions: Fluid (supercritical or subcritical phases), Vibrating tube method

c1ccc2ccccc2c1 [naphthalene] + O=C=O
Conditions | mass density [kg/m3]
323.07 K, 21967 kPa, x1 = 0.0049 | 814.97
323.07 K, 21991 kPa, x1 = 0.0235 | 840.23
323.07 K, 22035 kPa, x1 = 0.0093 | 823.39
323.07 K, 22055 kPa, x1 = 0.0144 | 828.6
323.07 K, 23011 kPa, x1 = 0.0144 | 836.78
323.07 K, 23014 kPa, x1 = 0.0049 | 824.8
323.07 K, 23024 kPa, x1 = 0.0235 | 848.46
323.07 K, 23037 kPa, x1 = 0.0093 | 832.27
323.07 K, 23975 kPa, x1 = 0.0144 | 844.56
323.07 K, 24012 kPa, x1 = 0.0235 | 855.79
323.07 K, 24013 kPa, x1 = 0.0093 | 840.35
323.07 K, 24015 kPa, x1 = 0.0049 | 833.51
323.07 K, 25007 kPa, x1 = 0.0235 | 862.81
323.07 K, 25048 kPa, x1 = 0.0093 | 848.36
323.08 K, 12879 kPa, x1 = 0.0173 | 702.14
323.08 K, 13019 kPa, x1 = 0.0173 | 705.93
323.08 K, 13536 kPa, x1 = 0.0173 | 719.07
323.08 K, 14042 kPa, x1 = 0.0173 | 730.6
323.08 K, 15088 kPa, x1 = 0.0173 | 750.8
323.08 K, 16012 kPa, x1 = 0.0173 | 766
323.08 K, 17038 kPa, x1 = 0.0173 | 780.79
323.08 K, 18011 kPa, x1 = 0.0173 | 793.15
323.08 K, 19021 kPa, x1 = 0.0173 | 804.74
323.08 K, 20018 kPa, x1 = 0.0173 | 815.17
323.08 K, 21012 kPa, x1 = 0.0173 | 824.64
323.08 K, 22051 kPa, x1 = 0.0173 | 833.83
323.08 K, 23040 kPa, x1 = 0.0173 | 842.05
323.08 K, 24014 kPa, x1 = 0.0173 | 849.58
323.08 K, 24688 kPa, x1 = 0.0173 | 854.56
323.11 K, 11710 kPa, x1 = 0.0065 | 608.68
323.11 K, 11886 kPa, x1 = 0.0065 | 618.53
323.11 K, 12112 kPa, x1 = 0.0065 | 630.1
323.11 K, 12597 kPa, x1 = 0.0065 | 651.76
323.11 K, 13175 kPa, x1 = 0.0065 | 672.88
323.11 K, 14114 kPa, x1 = 0.0065 | 700.29
323.11 K, 14946 kPa, x1 = 0.0065 | 719.89
323.11 K, 15974 kPa, x1 = 0.0065 | 740.17
323.11 K, 17091 kPa, x1 = 0.0065 | 758.86
323.11 K, 18018 kPa, x1 = 0.0065 | 772.31
323.11 K, 19119 kPa, x1 = 0.0065 | 786.49
323.11 K, 19947 kPa, x1 = 0.0065 | 796.13
323.11 K, 21027 kPa, x1 = 0.0065 | 807.77
323.11 K, 22102 kPa, x1 = 0.0065 | 818.31
323.11 K, 23244 kPa, x1 = 0.0065 | 828.6
323.11 K, 23905 kPa, x1 = 0.0065 | 834.23
323.11 K, 24345 kPa, x1 = 0.0065 | 837.73
323.13 K, 10131 kPa, x1 = 0.0038 | 441.7
323.13 K, 10204 kPa, x1 = 0.0038 | 452.21
323.13 K, 10370 kPa, x1 = 0.0038 | 473.73
323.13 K, 10546 kPa, x1 = 0.0038 | 495.19
323.13 K, 10713 kPa, x1 = 0.0038 | 513.93
323.13 K, 10899 kPa, x1 = 0.0038 | 532.86
323.13 K, 11125 kPa, x1 = 0.0038 | 553.43
323.13 K, 11428 kPa, x1 = 0.0038 | 577.02
323.13 K, 11636 kPa, x1 = 0.0038 | 591
323.13 K, 11975 kPa, x1 = 0.0038 | 610.86
323.13 K, 12255 kPa, x1 = 0.0038 | 625.25
323.13 K, 12628 kPa, x1 = 0.0038 | 641.9
323.13 K, 13011 kPa, x1 = 0.0038 | 656.88
323.13 K, 13569 kPa, x1 = 0.0038 | 675.56
323.13 K, 14021 kPa, x1 = 0.0038 | 688.77
323.13 K, 15003 kPa, x1 = 0.0038 | 713.06
323.13 K, 16030 kPa, x1 = 0.0038 | 733.89
323.13 K, 17020 kPa, x1 = 0.0038 | 750.95
323.13 K, 18020 kPa, x1 = 0.0038 | 766.06
323.13 K, 19025 kPa, x1 = 0.0038 | 779.54
323.13 K, 20018 kPa, x1 = 0.0038 | 791.52
323.13 K, 21018 kPa, x1 = 0.0038 | 802.54
323.13 K, 22016 kPa, x1 = 0.0038 | 812.65
323.13 K, 23026 kPa, x1 = 0.0038 | 822.13
323.13 K, 24020 kPa, x1 = 0.0038 | 830.83
323.13 K, 25003 kPa, x1 = 0.0038 | 838.9
327.94 K, 14128 kPa, x1 = 0.0198 | 700.18
327.94 K, 15025 kPa, x1 = 0.0198 | 721
327.94 K, 15984 kPa, x1 = 0.0198 | 739.45
327.94 K, 17037 kPa, x1 = 0.0198 | 756.72
327.94 K, 18024 kPa, x1 = 0.0198 | 770.78
327.94 K, 18966 kPa, x1 = 0.0198 | 782.81
327.94 K, 20021 kPa, x1 = 0.0198 | 794.93
327.94 K, 21050 kPa, x1 = 0.0198 | 805.66
327.94 K, 22039 kPa, x1 = 0.0198 | 815.2
327.94 K, 22982 kPa, x1 = 0.0198 | 823.62
327.94 K, 24044 kPa, x1 = 0.0198 | 832.44
327.94 K, 25048 kPa, x1 = 0.0198 | 840.3
